38 molecules from patent US10717742B2, “Spiro[3H-indole-3,2′-pyrrolidin]-2(1H)-one compounds and derivatives as MDM2-P53 inhibitors” (Boehringer Ingelheim International GmbH, priority 2015, dated 2020) can be followed below.

The term IC50 denotes the point on the concentration scale where inhibition reaches its midpoint. A high value points to a need for much substance.

Sequence of p53-MDM2 interaction (GST-MDM2 protein aa 23-117 / biotinylated p53 wt peptide) (Q00987 23-117): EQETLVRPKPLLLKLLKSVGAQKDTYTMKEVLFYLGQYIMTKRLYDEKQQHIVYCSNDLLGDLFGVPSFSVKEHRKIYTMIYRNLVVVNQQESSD

The assay has as its target p53-MDM2 interaction (GST-MDM2 protein aa 23-117 / biotinylated p53 wt peptide) (Homo sapiens (Human), UniProt Q00987). As to the kind of experiment: Mdm2-p53 Inhibition AlphaScreen. Conditions: GST-MDM2 (aa 23-117) / biotinylated p53 wt peptide. Type of assay: binding. The protocol:
Mdm2-p53 Inhibition AlphaScreen
15 μL of compound in 20% DMSO (serial pre-dilutions of compound are done in 100% DMSO) is pipetted to the wells of a white OptiPlate-96 (Perkin Elmer). A mix consisting of 20 nM GST-MDM2 protein (aa 23-117) and 20 nM biotinylated p53 wt peptide (encompassing aa 16-27 of wt human p53, amino acid sequence […]-Ttds-Lys-Biotin, molecular weight 2132.56 g/mol) is prepared in assay buffer (50 mM Tris/HCl pH 7.2; 120 mM NaCl; 0.1% bovine serum albumin (BSA); 5 mM dithiothreitol (DTT); 1 mM ethylenediaminetetraacetic acid (EDTA); 0.01% Tween 20). 30 μL of the mix is added to the compound dilutions and incubated for 15 min at rt while gently shaking the plate at 300 rounds per minute (rpm). Subsequently, 15 μL of premixed AlphaLISA Glutathione Acceptor Beads and AlphaScreen Streptavidin Donor Beads from PerkinElmer (in assay buffer at a concentration of 10 μg/mL each) are added and the samples are incubated for 30 min at rt in the dark (shaking 300 rpm). Afterwards, the signal is measured in a PerkinElmer Envision HIS Multilabel Reader using the AlphaScreen protocol from Perkin Elmer.
Each plate contains negative controls where biotinylated p53-peptide and GST-MDM2 are left out and replaced by assay buffer. Negative control values are entered as low basis value when using the software GraphPad Prism for calculations. Furthermore, a positive control (5% DMSO instead of test compound; with protein/peptide mix) is pipetted. Determination of IC50 values are carried out using GraphPad Prism 3.03 software (or updates thereof).
With `COC(=O)c1ccc2c3n(nc2c1C)[C@@H]1[C@H](C3)N(CC2CC2)[C@@]2(C(=O)Nc3cc(Cl)ccc32)[C@H]1c1cccc(Cl)c1F` [Ia-20], the IC50 turned out to be 23 nM.
To `O=C(O)c1ccc2c3n(nc2c1)[C@@H]1[C@H](C3)N(CC2CC2)[C@@]2(C(=O)Nc3cc(Cl)ccc32)[C@H]1c1cccc(Cl)c1F` [Ia-25] belongs 2 nM; to `O=C(O)c1ccc2c3n(nc2c1)[C@@H]1[C@H](C3)N(CC2CCC2)[C@@]2(C(=O)Nc3cc(Cl)ccc32)[C@H]1c1cccc(Cl)c1F` [Ia-26], 4 nM; to `CC(C)CN1[C@H]2Cc3c4ccc(C(=O)O)cc4nn3[C@H]2[C@H](c2cccc(Cl)c2F)[C@]12C(=O)Nc1cc(Cl)ccc12` [Ia-27], 2 nM.
For `CCCN1[C@H]2Cc3c4ccc(C(=O)O)cc4nn3[C@H]2[C@H](c2cccc(Cl)c2F)[C@]12C(=O)Nc1cc(Cl)ccc12` [Ia-29] the value was 2 nM.
`CCN1[C@H]2Cc3c4ccc(C(=O)O)cc4nn3[C@H]2[C@H](c2cccc(Cl)c2F)[C@]12C(=O)Nc1cc(Cl)ccc12` [Ia-30] gave an IC50 of 2 nM.
For `COCCN1[C@H]2Cc3c4ccc(C(=O)O)cc4nn3[C@H]2[C@H](c2cccc(Cl)c2F)[C@]12C(=O)Nc1cc(Cl)ccc12` [Ia-31] the value was 3 nM.
The molecule `CCOc1cccc(CN2[C@H]3Cc4c5ccc(C(=O)O)cc5nn4[C@H]3[C@H](c3cccc(Cl)c3F)[C@]23C(=O)Nc2cc(Cl)ccc23)c1` [Ia-32] displayed a concentration for half-maximal inhibition (IC50) of 2 nM.
`Cc1cc2c3n(nc2cc1C(=O)O)[C@@H]1[C@H](C3)N(CC2CC2)[C@@]2(C(=O)Nc3cc(Cl)ccc32)[C@H]1c1cccc(Cl)c1F` [Ia-33] registered a 50% inhibitory concentration (IC50) of 3 nM.
In turn, `Cc1c(C(=O)O)ccc2c3n(nc12)[C@@H]1[C@H](C3)N(CC2CC2)[C@@]2(C(=O)Nc3cc(Cl)ccc32)[C@H]1c1cccc(Cl)c1F` [Ia-34] registered an IC50 of 2 nM.
For `COc1cc2c3n(nc2cc1C(=O)O)[C@@H]1[C@H](C3)N(CC2CC2)[C@@]2(C(=O)Nc3cc(Cl)ccc32)[C@H]1c1cccc(Cl)c1F` [Ia-35] the value was 2 nM.
To `COc1c(C(=O)O)ccc2c3n(nc12)[C@@H]1[C@H](C3)N(CC2CC2)[C@@]2(C(=O)Nc3cc(Cl)ccc32)[C@H]1c1cccc(Cl)c1F` [Ia-36] belongs 5 nM.
For `O=C(O)c1ccc2nn3c(c2c1)C[C@H]1[C@@H]3[C@H](c2cccc(Cl)c2F)[C@]2(C(=O)Nc3cc(Cl)ccc32)N1CC1CC1` [Ia-38] the value was 2 nM.
As for `Cc1cc2c3n(nc2cc1C(=O)O)[C@@H]1[C@H](C3)N(CC(C)C)[C@@]2(C(=O)Nc3cc(Cl)ccc32)[C@H]1c1cccc(Cl)c1F` [Ia-39], the 50% inhibitory concentration (IC50) was determined as 4 nM.
To `CCOc1cccc(CN2[C@H]3Cc4c5cc(C)c(C(=O)O)cc5nn4[C@H]3[C@H](c3cccc(Cl)c3F)[C@]23C(=O)Nc2cc(Cl)ccc23)c1` [Ia-40] belongs 2 nM; to `O=C(O)c1ccc2c3n(nc2c1)[C@@H]1[C@H](C3)N(CC2CC2)[C@@]2(C(=O)Nc3cc(Cl)ccc32)[C@H]1c1ccnc(Cl)c1F` [Ia-41], 3 nM.
To `O=C(O)c1ccc2c3n(nc2c1)[C@@H]1[C@H](C3)N(CC2CC2)[C@@]2(C(=O)Nc3nc(Cl)ccc32)[C@H]1c1cccc(Cl)c1F` [Ia-43] belongs 2 nM; to `CC(C)(O)CNC(=O)c1ccc2c3n(nc2c1)[C@@H]1[C@H](C3)N(CC2CCC2)[C@@]2(C(=O)Nc3cc(Cl)ccc32)[C@H]1c1cccc(Cl)c1F` [Ia-46], 8 nM.
`O=C(NC1CC1)c1ccc2c3n(nc2c1)[C@@H]1[C@H](C3)N(CC2CCC2)[C@@]2(C(=O)Nc3cc(Cl)ccc32)[C@H]1c1cccc(Cl)c1F` [Ia-47] came in with an IC50 of 9 nM.
`COCC(COC)NC(=O)c1ccc2c3n(nc2c1)[C@@H]1[C@H](C3)N(CC2CCC2)[C@@]2(C(=O)Nc3cc(Cl)ccc32)[C@H]1c1cccc(Cl)c1F` [Ia-48] displayed a half-inhibitory concentration (IC50) of 10 nM.
To `COCCOCCNC(=O)c1ccc2c3n(nc2c1)[C@@H]1[C@H](C3)N(CC2CCC2)[C@@]2(C(=O)Nc3cc(Cl)ccc32)[C@H]1c1cccc(Cl)c1F` [Ia-49] belongs 6 nM; to `CCN1[C@H]2Cc3c4ccc(C(=O)NCCO)cc4nn3[C@H]2[C@H](c2cccc(Cl)c2F)[C@]12C(=O)Nc1cc(Cl)ccc12` [Ia-50], 4 nM; to `CCN1[C@H]2Cc3c4ccc(C(=O)NCCN(C)C)cc4nn3[C@H]2[C@H](c2cccc(Cl)c2F)[C@]12C(=O)Nc1cc(Cl)ccc12` [Ia-51], 7 nM.
To `CCN1[C@H]2Cc3c4ccc(C(=O)N5CCCCC5)cc4nn3[C@H]2[C@H](c2cccc(Cl)c2F)[C@]12C(=O)Nc1cc(Cl)ccc12` [Ia-52] belongs 69 nM; to `CCN1[C@H]2Cc3c4ccc(C(=O)NC5(C)COC5)cc4nn3[C@H]2[C@H](c2cccc(Cl)c2F)[C@]12C(=O)Nc1cc(Cl)ccc12` [Ia-53], 7 nM.
To `CCOc1cccc(CN2[C@H]3Cc4c5cc(C)c(C(=O)N6CCOCC6)cc5nn4[C@H]3[C@H](c3cccc(Cl)c3F)[C@]23C(=O)Nc2cc(Cl)ccc23)c1` [Ia-54] belongs 13 nM.
`CCOc1cccc(CN2[C@H]3Cc4c5cc(C)c(C(=O)NCCOC)cc5nn4[C@H]3[C@H](c3cccc(Cl)c3F)[C@]23C(=O)Nc2cc(Cl)ccc23)c1` [Ia-55]: the midpoint of inhibition, the IC50, lay at 6 nM.
For `CCOc1cccc(CN2[C@H]3Cc4c5cc(C)c(C(=O)NC)cc5nn4[C@H]3[C@H](c3cccc(Cl)c3F)[C@]23C(=O)Nc2cc(Cl)ccc23)c1` [Ia-56] the value was 5 nM.
To `CCOc1cccc(CN2[C@H]3Cc4c5cc(C)c(C(=O)N(C)C)cc5nn4[C@H]3[C@H](c3cccc(Cl)c3F)[C@]23C(=O)Nc2cc(Cl)ccc23)c1` [Ia-57] belongs 13 nM; to `CCOc1cccc(CN2[C@H]3Cn4c(nc5cc(C(=O)OC)ccc54)[C@H]3[C@H](c3cccc(Cl)c3F)[C@]23C(=O)Nc2cc(Cl)ccc23)c1` [Ib-49], 5 nM; to `CS(=O)(=O)c1ccc2c(c1)nc1n2CC[C@H]2[C@@H]1[C@H](c1cccc(Cl)c1F)[C@]1(C(=O)Nc3cc(Cl)ccc31)N2CC1CC1` [Ib-57], 12 nM.
`CS(=O)(=O)c1ccc2c(c1)nc1n2CC[C@H]2[C@@H]1[C@H](c1cccc(Cl)c1F)[C@]1(C(=O)Nc3cc(Cl)ccc31)N2CC1CC1` [Ib-58]: the concentration for half-maximal inhibition (IC50) came to 7 nM.
To `CC(=O)Nc1ccc2c(c1)nc1n2CC[C@H]2[C@@H]1[C@H](c1cccc(Cl)c1F)[C@]1(C(=O)Nc3cc(Cl)ccc31)N2CC1CC1` [Ib-59] belongs 15 nM; to `COC(=O)c1ccc2c(c1)nc1n2CC[C@H]2[C@@H]1[C@H](c1cccc(Cl)c1F)[C@]1(C(=O)Nc3cc(Cl)ccc31)N2CC=C(C)C` [Ib-66], 166 nM.
For `O=C(O)c1ccc2c(c1)nc1n2CC[C@H]2[C@@H]1[C@H](c1cccc(Cl)c1F)[C@]1(C(=O)Nc3cc(Cl)ccc31)N2CC1CC1` [Ib-106] the value was 3 nM; for `O=C(O)c1ccc2c(c1)nc1n2CC[C@H]2[C@@H]1[C@H](c1cccc(Cl)c1F)[C@]1(C(=O)Nc3cc(Cl)ccc31)N2CC1CC1` [Ib-107], 2 nM; for `O=C(O)c1ccc2c(c1)nc1n2CC[C@@H]2[C@H]1[C@@H](c1cccc(Cl)c1F)[C@@]1(C(=O)Nc3cc(Cl)ccc31)N2CC1CC1` [Ib-108], 79 nM.
Turning to `CC(C)CN1[C@H]2CCn3c(nc4cc(C(=O)O)ccc43)[C@H]2[C@H](c2cccc(Cl)c2F)[C@]12C(=O)Nc1cc(Cl)ccc12` [Ib-109], the IC50 worked out at 8 nM.
